ChEMBL document CHEMBL6103661, “Identification of Phosphodiesterase-7 Inhibitors with Spiro[[1,3]oxazolo[5,4-f]quinazoline-9,1'-cyclohexan]-7-one Scaffold for the Treatment of Chronic Fatigue” (ACS Med Chem Lett, 2025)

Tests used:
Soleus muscle = assay: Protection against 12.5 mM KCl-induced loss of contractile force in Sprague-Dawley rat soleus muscle assessed as mean residual contractile force at 1 uM pretreated for 10 mins followed by KCl stimulation at 5 mins interval for 30 mins and measured in presence of salbutamol by isometric force transducer method relative to control; format: functional; details: time 40 min
[1] = target: High affinity 3',5'-cyclic-AMP phosphodiesterase 7A (Homo sapiens, UniProt Q13946); assay: Inhibition of human recombinant PDE7A expressed in Sf9 insect cells using FAM-cAMP as substrate preincubated for 15 mins followed by substrate addition and measured after 30 mins by spectrofluorimetry
Sequence of High affinity 3',5'-cyclic-AMP phosphodiesterase 7A (Q13946 whole entry): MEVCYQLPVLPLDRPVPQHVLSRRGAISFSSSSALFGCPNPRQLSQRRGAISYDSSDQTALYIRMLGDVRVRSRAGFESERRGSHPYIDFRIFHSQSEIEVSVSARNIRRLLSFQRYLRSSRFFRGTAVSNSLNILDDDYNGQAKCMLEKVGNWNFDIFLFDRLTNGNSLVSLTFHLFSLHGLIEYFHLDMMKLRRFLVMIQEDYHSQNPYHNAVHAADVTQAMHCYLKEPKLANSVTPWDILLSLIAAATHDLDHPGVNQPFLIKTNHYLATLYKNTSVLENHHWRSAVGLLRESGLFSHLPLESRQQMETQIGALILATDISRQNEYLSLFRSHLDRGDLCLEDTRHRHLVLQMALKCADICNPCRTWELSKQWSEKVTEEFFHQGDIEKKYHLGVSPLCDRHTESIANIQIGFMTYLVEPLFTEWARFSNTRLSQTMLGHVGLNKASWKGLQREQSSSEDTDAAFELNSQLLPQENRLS

[2] = target: 3',5'-cyclic-AMP phosphodiesterase 7B (Homo sapiens, UniProt Q9NP56); assay: Inhibition of human recombinant PDE7B expressed in Sf9 insect cells using FAM-cAMP as substrate preincubated for 15 mins followed by substrate addition and measured after 30 mins by spectrofluorimetry
Sequence of 3',5'-cyclic-AMP phosphodiesterase 7B (Q9NP56 whole entry): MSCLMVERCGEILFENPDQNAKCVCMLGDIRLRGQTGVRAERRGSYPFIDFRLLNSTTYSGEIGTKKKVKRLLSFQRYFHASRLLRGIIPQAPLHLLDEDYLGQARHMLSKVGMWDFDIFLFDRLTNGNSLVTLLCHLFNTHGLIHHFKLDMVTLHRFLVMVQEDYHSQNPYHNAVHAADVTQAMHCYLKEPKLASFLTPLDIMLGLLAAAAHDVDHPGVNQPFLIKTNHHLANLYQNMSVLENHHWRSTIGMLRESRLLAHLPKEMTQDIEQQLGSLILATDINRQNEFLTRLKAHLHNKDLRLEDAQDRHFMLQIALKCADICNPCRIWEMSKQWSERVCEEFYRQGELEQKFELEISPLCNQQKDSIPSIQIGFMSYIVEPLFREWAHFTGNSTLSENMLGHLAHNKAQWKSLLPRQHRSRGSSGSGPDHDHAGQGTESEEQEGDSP

Structure (SMILES)	Activity (Soleus muscle) [%]	IC50 [1] [nM]	IC50 [2] [nM]
CN(C)C(=O)CNCc1nc2cc(Cl)c3c(c2o1)C1(CCCCC1)NC(=O)N3	60.5	5.57	–
CN(C)C1CCN(C(=O)c2cc3cc(Cl)c4c(c3o2)C2(CCCCC2)NC(=O)N4)CC1	73.7	28	58
